# Values quoted from earlier work in patent US20050042301A1, “Method of use of Xenon-133 for the treatment of AIDS, other viral and non-viral infections” (priority 2003, published 2005).
# Details: stable xenon; b17 says distributed in the body, b20 says formed in vitro
structure (smiles),measurement,value
"[131Xe] [Xe-131, Xenon-131]",size range of gas microbubbles (diameter),5-10 microns
